Experimental data taken from US7731985B2, “4-aminopyrimidines and their use for the antimicrobial treatment of surfaces” (Ciba Specialty Chemicals Corporation, priority 2002, dated 2010).

Columns and labels:
Assay in all cases: MIC in microtitre plates (Example 10)
Type in all cases: cell-based
Parameters in all cases: unit not given here
Details in all cases: microtitre plate, 48 hours at 37° C., ≦20% growth
[1] = system: Staphylococcus aureus ATCC 9144 (=SA)
Procedure: (§1) Determination of the Minimum Inhibitory Concentration (MIC Value) in Microtitre Plates Casein/soymeal peptone broth for preparation of pre-cultures of test bacteria and yeast Bacteria: • Pseudomonas aeruginosa CIP A-22 (=PA) • Escherichia coli NCTC 8196 (=EC) • Staphylococcus aureus ATCC 9144 (=SA) • Candida albicans ATCC 10231 (=CA) The test substances are pre-dissolved in dimethyl sulfoxide (DMSO) and tested in a dilution series of 1:2. Bacteria and yeast are cultured overnight in CASO broth. All the test organism suspensions are adjusted to an organism count of 1-5×10^6 CFU/ml using […] sodium chloride solution. The test substances are pre-pipetted into microtitre plates in amounts of 8 μl per well. The pre-adjusted organism suspensions are diluted 1:100 in CASO broth and are added in amounts of 192 μl per well to the test substances. The test batches are incubated for 48 hours at 37° C. The incubation, the growth is determined on the basis of the turbidity of the test batches (optical density) at 620 nm in a microplate reader. The minimum inhibitory concentration (MIC value) is the concentration of substance at which (compared to the growth of the control) an appreciable inhibition of growth (≦20% growth) of the test organisms is observed. Three microtitre plates are used for each test organism and substance concentration. All the substances are tested in duplicate.

[2] = system: Escherichia coli NCTC 8196 (=EC)
Procedure: as §1

[3] = system: Candida albicans ATCC 10231 (=CA)
Procedure: as §1

[4] = system: Pseudomonas aeruginosa CIP A-22 (=PA)
Procedure: as §1

| Structure (SMILES) | MIC SA [1] | MIC EC [2] | MIC CA [3] | MIC PA [4] |
| --- | --- | --- | --- | --- |
| CCCCCCCCCCCCCCNc1cc(C)nc(-c2cccnc2)n1 [compound 38] | <3.75 | 7.5 | <3.75 | >120 |
| CCCCCCCCCCCCCCCCNc1cc(C)nc(-c2cccnc2)n1 [compound 39] | <3.75 | 30 | 15 | >120 |
| CCCC(C)Nc1cc(C)nc(-c2cccnc2)n1 (stereo not drawn) [compound 40] | 60 | >120 | 120 | >120 |
| Cc1cc(NC(C)CC(C)C)nc(-c2cccnc2)n1 (stereo not drawn) [compound 41] | 30 | >120 | 60 | >120 |
| CCCCC(CC)CNc1cc(C)nc(-c2cccnc2)n1 (stereo not drawn) [compound 42] | <3.75 | 120 | 30 | >120 |
| COCC(C)Nc1cc(C)nc(-c2cccnc2)n1 (stereo not drawn) [compound 43] | 60 | >120 | 120 | >120 |
| CCN(CC)CCCNc1cc(C)nc(-c2cccnc2)n1 [compound 44] | 120 | >120 | 120 | >120 |
| Cc1cc(NCc2ccccc2)nc(-c2cccnc2)n1 [compound 45] | 60 | >120 | 120 | >120 |
| Cc1cc(NC2CCCCC2)nc(-c2cccnc2)n1 [compound 46] | 120 | >120 | 120 | >120 |
| Cc1cc(Nc2ccccn2)nc(-c2cccnc2)n1 [compound 47] | 120 | >120 | >120 | >120 |
| Cc1cc(NCCc2ccccc2)nc(-c2cccnc2)n1 [compound 48] | 30 | >120 | 60 | >120 |
| Cc1cc(NCc2ccccn2)nc(-c2cccnc2)n1 [compound 49] | 120 | >120 | >120 | >120 |
| Cc1cc(N2CCOCC2)nc(-c2cccnc2)n1 [compound 50] | 120 | >120 | >120 | >120 |
| Cc1cc(NCc2ccco2)nc(-c2cccnc2)n1 [compound 51] | 30 | >120 | >120 | >120 |
| CCCN(CCC)c1cc(C)nc(-c2cccnc2)n1 [compound 52] | 30 | >120 | 120 | >120 |
| CCCCN(C)c1cc(C)nc(-c2cccnc2)n1 [compound 53] | 60 | >120 | 120 | >120 |
| CCCCN(CCCC)c1cc(C)nc(-c2cccnc2)n1 [compound 54] | 15 | >120 | 120 | >120 |
| Cc1cc(N(C)CCO)nc(-c2cccnc2)n1 [compound 55] | 120 | >120 | >120 | >120 |
| Cc1cc(N2CCCCCC2)nc(-c2cccnc2)n1 [compound 56] | 60 | >120 | 120 | >120 |
| CCCCCCCCNc1cc(C)nc(-c2ccc(-c3ccccc3)cc2)n1 [compound 57] | 60 | >120 | 120 | >120 |
| CCCCCCCCNc1cc(C)nc(-c2ccc(C(C)(C)C)cc2)n1 [compound 58] | 15 | 120 | 60 | >120 |
| CCCCCCCCNc1cc(C)nc(-c2cccs2)n1 [compound 59] | 15 | 60 | 60 | >120 |
| CCCCCCCCNc1cc(C)nc(-c2cccc(C)c2)n1 [compound 60] | 120 | >120 | 120 | >120 |
| CCCCCCCCNc1cc(C)nc(-c2cccc(F)c2)n1 [compound 61] | 30 | 120 | 120 | >120 |

| Structure (SMILES) | MIC SA [1] | MIC EC [2] | MIC CA [3] | MIC PA [4] |
| --- | --- | --- | --- | --- |
| CCCCCCCCNc1cc(C)nc(-c2cccc(OC)c2)n1 [compound 62] | 60 | 120 | 120 | >120 |
| CCCCCCCCNc1cc(C)nc(-c2ccccc2)n1 [compound 63] | 15 | 30 | 60 | >120 |
| CCCCCCCCNc1cc(C)nc(-c2ccccc2)n1 [compound 64] | 7.5 | 30 | 15 | >120 |
| CCCCCCCCNc1cc(C)nc(C)n1 [compound 65] | 30 | 60 | 15 | >120 |
| CCCCCCCCNc1cc(C)nc(-c2ccc(C)cc2)n1 [compound 66] | <3.75 | 30 | 30 | >120 |
| CCCCCCCCNc1cc(C)nc(C2CC2)n1 [compound 67] | 7.5 | 30 | 7.5 | >120 |
| CCCCCCCCNc1cc(C)nc(C(C)C)n1 [compound 68] | 15 | 30 | 15 | >120 |
| CCCCCCCCNc1cc(C)nc(-c2csc(C)n2)n1 [compound 69] | <3.75 | 30 | 7.5 | >120 |
| CCCCCCCCNc1cc(C)nc(-c2ccc(C)c(F)c2)n1 [compound 70] | <3.75 | 15 | 7.5 | >120 |
| CCCCCCCCCCCCCCNc1cc(C)nc(-c2ccc(-c3ccccc3)cc2)n1 [compound 71] | 7.5 | 15 | 7.5 | >120 |
| CCCCCCCCCCCCCCNc1cc(C)nc(-c2ccc(C(C)(C)C)cc2)n1 [compound 72] | 7.5 | 15 | 7.5 | >120 |
| CCCCCCCCCCCCCCNc1cc(C)nc(-c2cccs2)n1 [compound 73] | <3.75 | 7.5 | <3.75 | >120 |
| CCCCCCCCCCCCCCNc1cc(C)nc(-c2ccsc2)n1 [compound 74] | <3.75 | 7.5 | <3.75 | >120 |
| CCCCCCCCCCCCCCNc1cc(C)nc(-c2cccc(F)c2)n1 [compound 75] | 7.5 | 15 | 7.5 | >120 |
| CCCCCCCCCCCCCCNc1cc(C)nc(-c2ccccc2)n1 [compound 76] | 15 | 60 | 30 | >120 |
| CCCCCCCCCCCCCCNc1cc(C)nc(-c2ccncc2)n1 [compound 77] | 7.5 | 60 | 15 | >120 |
| CCCCCCCCCCCCCCNc1cc(C)nc(C)n1 [compound 78] | <3.75 | 7.5 | <3.75 | >120 |
| CCCCCCCCCCCCCCNc1cc(C)nc(-c2ccc(C)cc2)n1 [compound 79] | <3.75 | <3.75 | <3.75 | >120 |
| CCCCCCCCCCCCCCNc1cc(C)nc(C2CC2)n1 [compound 80] | <3.75 | 7.5 | 7.5 | >120 |
| CCCCCCCCCCCCCCNc1cc(C)nc(C(C)C)n1 [compound 81] | <3.75 | <3.75 | <3.75 | >120 |
| CCCCCCCCCCCCCCNc1cc(C)nc(-c2csc(C)n2)n1 [compound 82] | <3.75 | 15 | 7.5 | >120 |
| CCCCCCCCCCCCCCNc1cc(C)nc(-c2ccc(C)c(F)c2)n1 [compound 83] | <3.75 | 7.5 | <3.75 | >120 |
| CCCCCCCCCCCCNc1cc(C)nc(-c2ccc(-c3ccccc3)cc2)n1 [compound 84] | 15 | 15 | 7.5 | >120 |
| CCCCCCCCCCCCNc1cc(C)nc(-c2ccc(C(C)(C)C)cc2)n1 [compound 85] | 15 | 7.5 | 7.5 | <120 |
